Measurements from patent publication US7772271B2 (priority 2004, dated 2010).

Row | Compound | melting point
1 | CC(C)C(C)OC(=O)Nc1ccc(-c2c(C#N)c3ccc(OC4CCOC4)cc3n2C2CC2)cc1 (centres unmarked) [Compound 1446] | 207 to 208 °C
2 | CC(OC(=O)Nc1ccc(-c2c(C#N)c3ccc(OC4CCOC4)cc3n2C2CC2)cc1)C(C)(C)C (centres unmarked) [Compound 1447] | 220 to 222 °C
3 | CC(NC(=O)Nc1ccc(-c2c(C#N)c3ccc(OC4CCOC4)cc3n2C2CC2)cc1)c1ccc(F)cc1 (centres unmarked) [Compound 1448] | 182 to 184 °C
4 | CC(C)OC(=O)Nc1ccc(-c2c(C#N)c3ccc(OC4CCOC4)cc3n2C2CC2)cc1 (centres unmarked) [Compound 1449] | 180 to 181 °C
5 | CCCS(=O)(=O)Nc1ccc(-c2c(C#N)c3ccc(OCCCO)cc3n2C2CCC2)cc1 [Compound 1450] | 162 to 163 °C
6 | CCCS(=O)(=O)Nc1ccc(-c2c(C#N)c3ccc(OCCO)cc3n2C2CCC2)cc1 [Compound 1451] | 163 to 164 °C
7 | CC(OC(=O)Nc1ccc(-c2c(C#N)c3ccc(OC4CCOC4)cc3n2C2CCC2)cc1)C1CC1 (centres unmarked) [Compound 1453] | 183 to 184 °C
8 | CC(C)C(OC(=O)Nc1ccc(-c2c(C#N)c3ccc(OC4CCOC4)cc3n2C2CCC2)cc1)C(C)C (centres unmarked) [Compound 1454] | 183 to 184 °C
9 | N#Cc1c(-c2ccc(NC(=O)OC3CCC3)cc2)n(C2CCC2)c2cc(OC3CCOC3)ccc12 (centres unmarked) [Compound 1455] | 183 to 184 °C
10 | CC(OC(=O)Nc1ccc(-c2c(C#N)c3ccc(OC4CCOC4)cc3n2C2CCC2)cc1)c1ccccc1 (centres unmarked) [Compound 1456] | 183 to 184 °C
11 | CC(OC(=O)Nc1ccc(-c2c(C#N)c3ccc(OC4CCOC4)cc3n2C2CCC2)cc1)C(F)(F)F (centres unmarked) [Compound 1457] | 183 to 184 °C
12 | CCC(OC(=O)Nc1ccc(-c2c(C#N)c3ccc(OC4CCOC4)cc3n2C2CCC2)cc1)C(C)C (centres unmarked) [Compound 1458] | 183 to 184 °C
13 | CCC(C)C(C)OC(=O)Nc1ccc(-c2c(C#N)c3ccc(OC4CCOC4)cc3n2C2CCC2)cc1 (centres unmarked) [Compound 1459] | 183 to 184 °C
14 | CC(OC(=O)Nc1ccc(-c2c(C#N)c3ccc(OC4CCOC4)cc3n2C2CCC2)cc1)C1CCCC1 (centres unmarked) [Compound 1460] | 183 to 184 °C
15 | CC(C)NC(=O)Nc1ccc(-c2c(C#N)c3ccc(OC4CCOC4)cc3n2C2CCC2)cc1 (centres unmarked) [Compound 1462] | 183 to 184 °C
16 | CC(C)Nc1ccc(-c2c(C#N)c3ccc(OC4CCOC4)cc3n2C2CC2)cc1 (centres unmarked) [Compound 2150] | 170 to 172 °C
17 | CCN(CC)C(=O)c1ccc2c(C#N)c(-c3ccc(NC(=O)OC(C)C)cc3)n(C3CCC3)c2c1 [Compound 2186] | 189 to 191 °C
18 | CCOc1ccc2c(C#N)c(-c3ccc(C(=O)NCCc4ccccn4)cc3)n(C3CCC3)c2c1 [Compound 2250] | 194 to 195 °C
19 | CCOc1ccc2c(C#N)c(-c3ccc(C(=O)N4CC[C@@H](O)C4)cc3)n(C3CCC3)c2c1 [Compound 2251] | 172 to 173 °C
20 | CCCN(CCC)C(=O)c1ccc2c(C#N)c(-c3ccc(NC(=O)O[C@H](C)C4CC4)cc3)n(C3CCC3)c2c1 [Compound 2271] | 160 to 163 °C
21 | CCN(CC)C(=O)c1ccc2c(C#N)c(-c3ccc(NC(=O)O[C@H](C)C4CC4)cc3)n(C3CCC3)c2c1 [Compound 2272] | 166 to 168 °C
22 | CCC(C)NC(=O)c1ccc2c(C#N)c(-c3ccc(NC(=O)O[C@H](C)C4CC4)cc3)n(C3CCC3)c2c1 (some centres unmarked) [Compound 2273] | 118 to 121 °C

Row | Compound | melting point
23 | CCN(C)C(=O)c1ccc2c(C#N)c(-c3ccc(NC(=O)O[C@H](C)C4CC4)cc3)n(C3CCC3)c2c1 [Compound 2275] | 114 to 117 °C
24 | C[C@@H](OC(=O)Nc1ccc(-c2c(C#N)c3ccc(C(=O)N(C)C)cc3n2C2CCC2)cc1)C1CC1 [Compound 2276] | 118 to 120 °C
25 | COc1ccc2c(F)c(-c3ccc(NC(=O)NC(C)C)cc3)n(CC3CC3)c2c1 [Compound 2277] | 217 to 221 °C
26 | CCN(CC)C(=O)c1ccc2c(C#N)c(-c3ccc(NS(=O)(=O)C4CC4)cc3)n(C3CCC3)c2c1 [Compound 2294] | 205 to 207 °C
27 | CCC(C)NC(=O)c1ccc2c(C#N)c(-c3ccc(NS(=O)(=O)C4CC4)cc3)n(C3CCC3)c2c1 (centres unmarked) [Compound 2295] | 105 to 107 °C
28 | CCN(C)C(=O)c1ccc2c(C#N)c(-c3ccc(NS(=O)(=O)C4CC4)cc3)n(C3CCC3)c2c1 [Compound 2296] | 202 to 205 °C
29 | CN(C)C(=O)c1ccc2c(C#N)c(-c3ccc(NS(=O)(=O)C4CC4)cc3)n(C3CCC3)c2c1 [Compound 2297] | 235 to 237 °C
30 | CC(C)OC(=O)Nc1ccc(-c2c(C#N)c3cc(OCCCn4cncn4)ccc3n2C2CCC2)cc1 [Compound 2605] | 204 to 205 °C
31 | CC(C)OC(=O)Nc1ccc(-c2c(C#N)c3cc(OCCCn4cccn4)ccc3n2C2CCC2)cc1 [Compound 2606] | 148 to 150 °C
32 | CC(C)OC(=O)Nc1ccc(-c2c(C#N)c3cc(OCCCn4ccnc4)ccc3n2C2CCC2)cc1 [Compound 2607] | 209 to 211 °C
33 | COCCOc1ccc2c(C#N)c(-c3ccc(NC(=O)OC(C)C)cc3)n(C(C)C)c2c1 [Compound 2608] | 153 to 155 °C
34 | COCCOc1ccc2c(C#N)c(-c3ccc(NC(=O)OC4CCC4)cc3)n(C(C)C)c2c1 [Compound 2609] | 165 to 166 °C
35 | COCCOc1ccc2c(C#N)c(-c3ccc(NC(=O)OC4CCOC4)cc3)n(C(C)C)c2c1 (centres unmarked) [Compound 2610] | 181 to 183 °C
36 | CCOCCOc1ccc2c(C#N)c(-c3ccc(NC(=O)OC(C)C)cc3)n(C3CCC3)c2c1 [Compound 2611] | 115 to 116 °C
37 | CCOCCOc1ccc2c(C#N)c(-c3ccc(NC(=O)NC(C)C)cc3)n(C3CCC3)c2c1 [Compound 2612] | 148 to 150 °C
38 | CCOCCOc1ccc2c(C#N)c(-c3ccc(NC(=O)OC(C)C4CC4)cc3)n(C3CCC3)c2c1 (centres unmarked) [Compound 2613] | 141 to 142 °C
39 | CC(OC(=O)Nc1ccc(-c2c(C#N)c3ccc(OC4CCOCC4)cc3n2C2CCC2)cc1)C1CC1 (centres unmarked) [Compound 2615] | 118 to 120 °C
40 | CCC(CC)OC(=O)Nc1ccc(-c2c(C#N)c3ccc(OC4CCOCC4)cc3n2C2CCC2)cc1 [Compound 2617] | 127 to 129 °C
41 | CC(OC(=O)Nc1ccc(-c2c(C#N)c3ccc(OC4CCOCC4)cc3n2C2CCC2)cc1)c1ccccc1 (centres unmarked) [Compound 2618] | 96 to 98 °C
42 | CC(C)OC(=O)Nc1ccc(-c2c(C#N)c3cc(OCCn4ccnc4)ccc3n2C2CCC2)cc1 [Compound 2631] | 185 to 188 °C
43 | CCOCCOc1ccc2c(C#N)c(-c3ccc(NC(=O)OC(C)C(F)(F)F)cc3)n(C3CCC3)c2c1 (centres unmarked) [Compound 2636] | 122 to 124 °C
44 | CC(C)OC(=O)Nc1ccc(-c2c(C#N)c3ccc(O[C@@H]4CCOC4)cc3n2C2CCC2)cc1 [Compound 2638] | 196 to 197 °C

Row | Compound | melting point
45 | CC(OC(=O)Nc1ccc(-c2c(C#N)c3ccc(OCCCCn4ccnc4)cc3n2C2CCC2)cc1)c1ccc(F)cc1 (centres unmarked) [Compound 2642] | 93 to 95 °C
46 | CC(OC(=O)Nc1ccc(-c2c(C#N)c3ccc(OCCCCn4cncn4)cc3n2C2CCC2)cc1)C(F)(F)F (centres unmarked) [Compound 2643] | 168 to 169 °C
47 | CC(OC(=O)Nc1ccc(-c2c(C#N)c3ccc(OCCCCn4cncn4)cc3n2C2CCC2)cc1)c1ccc(F)cc1 (centres unmarked) [Compound 2644] | 108 to 110 °C
48 | N#Cc1c(-c2ccc(NC(=O)OC(c3ccccc3)C(F)(F)F)cc2)n(C2CCC2)c2cc(OCCCCn3cncn3)ccc12 (centres unmarked) [Compound 2645] | 118 to 120 °C
49 | CC(OC(=O)Nc1ccc(-c2c(C#N)c3ccc(OCC4OCCO4)cc3n2C2CCC2)cc1)C(F)(F)F (centres unmarked) [Compound 2646] | 187 to 189 °C
50 | CC(OC(=O)Nc1ccc(-c2c(C#N)c3ccc(OC4CCOCC4)cc3n2C2CC2)cc1)C1CC1 (centres unmarked) [Compound 2647] | 130 to 133 °C
51 | CC(OC(=O)Nc1ccc(-c2c(C#N)c3ccc(OC4CCOCC4)cc3n2C2CC2)cc1)C(C)(C)C (centres unmarked) [Compound 2648] | 203 to 205 °C
52 | CC(OC(=O)Nc1ccc(-c2c(C#N)c3ccc(OC4CCOCC4)cc3n2C2CC2)cc1)C(F)(F)F (centres unmarked) [Compound 2649] | 207 to 209 °C
53 | CC(NC(=O)Nc1ccc(-c2c(C#N)c3ccc(OC4CCOCC4)cc3n2C2CC2)cc1)c1ccc(F)cc1 (centres unmarked) [Compound 2653] | 189 to 192 °C
54 | N#Cc1c(-c2ccc(NC(=O)OC(C(F)(F)F)C(F)(F)F)cc2)n(C2CCC2)c2cc(OCC3OCCO3)ccc12 [Compound 2657] | 202 to 205 °C
55 | COCCN(C)C(=O)c1ccc2c(C#N)c(-c3ccc(NC(=O)OC(C)C)cc3)n(C3CCC3)c2c1 [Compound 2659] | 102 to 105 °C
56 | CCOc1ccc2c(C#N)c(-c3ccc(S(=O)(=O)N4CCCCC4)cc3)n(C3CCC3)c2c1 [Compound 2661] | 195 to 202 °C
57 | CCn1nnc(COc2ccc3c(C#N)c(-c4ccc(NC(=O)OC(C)C)cc4)n(C4CCC4)c3c2)n1 [Compound 2667] | 184 to 190 °C
58 | CC(OC(=O)Nc1ccc(-c2c(C#N)c3ccc(OC4CCOCC4)cc3n2C2CCC2)cc1)C(F)(F)F (centres unmarked) [Compound 2668] | 195 to 197 °C
59 | COCCOc1ccc2c(C#N)c(-c3ccc(NC(=O)OC(C)C(C)(C)C)cc3)n(C(C)C)c2c1 (centres unmarked) [Compound 2670] | 204 to 205 °C
60 | COCCOc1ccc2c(C#N)c(-c3ccc(NC(C4CC4)C4CC4)cc3)n(C(C)C)c2c1 [Compound 2671] | 148 to 150 °C
61 | N#Cc1c(-c2ccc(NC(=O)OC3CCC3)cc2)n(C2CCC2)c2ccc(OCCn3cncn3)cc12 [Compound 2677] | 190 to 192 °C
62 | COCCOc1ccc2c(C#N)c(-c3ccc(NC(=O)OC(C)C(F)(F)F)cc3)n(C(C)C)c2c1 (centres unmarked) [Compound 2686] | 162 to 165 °C
63 | COCCOc1ccc2c(C#N)c(-c3ccc(NC(=O)OC(C)c4ccc(F)cc4)cc3)n(C(C)C)c2c1 (centres unmarked) [Compound 2687] | 89 to 112 °C
64 | COCCOc1ccc2c(C#N)c(-c3ccc(NC(=O)OC(c4ccccc4)C(F)(F)F)cc3)n(C(C)C)c2c1 (centres unmarked) [Compound 2688] | 150 to 155 °C
65 | CCOc1ccc2c(C#N)c(-c3ccc(S(=O)(=O)N4CCC[C@H]4CO)cc3)n(C3CCC3)c2c1 [Compound 2689] | 180 to 183 °C
